Measured values taken from the supplement of paper PMC4862054.

Assays:
Details in all cases: incubation time: 72 h
CAL-120 [1] = test: drug sensitivity score (DSS), CellTiter-Glo (DSS (AUC-based score)); higher = stronger drug effect (viability inhibition or cytotoxicity); extreme values may be limits of the assay
Summary of the method: (§1)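 Normalisation on every plate relied on 0.1 % DMSO and a positive kill control. The plates, 384-well format, held compound at 5 concentrations 10-fold apart across a compound-specific 10,000-fold range, and breast cancer cell lines in 20 µl suspension were incubated on them for 72 h before CellTox Green and then CellTiter-Glo readings. The drug sensitivity score derives from the area under the fitted dose-response curve.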

HCC1937 [2] = test: as above
Summary of the method: as §1

Hs578T = test: as above
Summary of the method: as §1

CAL-85-1 [3] = test: as above
Summary of the method: as §1

MDA-MB-231 [4] = test: as above
Summary of the method: as §1

CAL-51 [5] = test: as above
Summary of the method: as §1

MCF-10A [6] = test: as above
Summary of the method: as §1

DU-4475 [7] = test: as above
Summary of the method: as §1

HCC1143 [8] = test: as above
Summary of the method: as §1

HDQ-P1 [9] = test: as above
Summary of the method: as §1

CAL-148 [10] = test: as above
Summary of the method: as §1

MDA-MB-468 [11] = test: as above
Summary of the method: as §1

MFM-223 [12] = test: as above
Summary of the method: as §1

HCC1599 [13] = test: as above
Summary of the method: as §1

MDA-MB-453 [14] = test: as above
Summary of the method: as §1

MDA-MB-436 = test: as above
Summary of the method: as §1

SK-BR-3 = test: as above
Summary of the method: as §1

BT-474 [15] = test: as above
Summary of the method: as §1

BT-549 [16] = test: as above
Summary of the method: as §1

CAL-120 [17] = test: drug sensitivity score (DSS), CellTox Green (DSS (AUC-based score)); higher = stronger drug effect (viability inhibition or cytotoxicity); extreme values may be limits of the assay
Summary of the method: as §1

HCC1937 [18] = test: as above
Summary of the method: as §1

CAL-85-1 [19] = test: as above
Summary of the method: as §1

MDA-MB-231 [20] = test: as above
Summary of the method: as §1

CAL-51 [21] = test: as above
Summary of the method: as §1

MCF-10A [22] = test: as above
Summary of the method: as §1

DU-4475 [23] = test: as above
Summary of the method: as §1

HCC1143 [24] = test: as above
Summary of the method: as §1

HDQ-P1 [25] = test: as above
Summary of the method: as §1

CAL-148 [26] = test: as above
Summary of the method: as §1

MDA-MB-468 [27] = test: as above
Summary of the method: as §1

MFM-223 [28] = test: as above
Summary of the method: as §1

HCC1599 [29] = test: as above
Summary of the method: as §1

MDA-MB-453 [30] = test: as above
Summary of the method: as §1

BT-474 [31] = test: as above
Summary of the method: as §1

BT-549 [32] = test: as above
Summary of the method: as §1

c1ccc([C@H]2CN3CCSC3=N2)cc1 [Levamisole]
drug sensitivity score (CAL-120 [1]): 0
drug sensitivity score (HCC1937 [2]): 0
drug sensitivity score (Hs578T): 0
drug sensitivity score (CAL-85-1 [3]): 0
drug sensitivity score (MDA-MB-231 [4]): 0
drug sensitivity score (CAL-51 [5]): 0
drug sensitivity score (MCF-10A [6]): 0
drug sensitivity score (DU-4475 [7]): 0
drug sensitivity score (HCC1143 [8]): 0
drug sensitivity score (HDQ-P1 [9]): 0
drug sensitivity score (CAL-148 [10]): 0
drug sensitivity score (MDA-MB-468 [11]): 0
drug sensitivity score (MFM-223 [12]): 0
drug sensitivity score (HCC1599 [13]): 0
drug sensitivity score (MDA-MB-453 [14]): 0
drug sensitivity score (MDA-MB-436): 0
drug sensitivity score (SK-BR-3): 0
drug sensitivity score (BT-474 [15]): 0
drug sensitivity score (BT-549 [16]): 0
drug sensitivity score (CAL-120 [17]): 0
drug sensitivity score (HCC1937 [18]): 0
drug sensitivity score (CAL-85-1 [19]): 0
drug sensitivity score (MDA-MB-231 [20]): 1.47
drug sensitivity score (CAL-51 [21]): 0
drug sensitivity score (MCF-10A [22]): 0
drug sensitivity score (DU-4475 [23]): 0
drug sensitivity score (HCC1143 [24]): 0
drug sensitivity score (HDQ-P1 [25]): 2.62
drug sensitivity score (CAL-148 [26]): 0
drug sensitivity score (MDA-MB-468 [27]): 0
drug sensitivity score (MFM-223 [28]): 0
drug sensitivity score (HCC1599 [29]): 0
drug sensitivity score (MDA-MB-453 [30]): 1.72
drug sensitivity score (BT-474 [31]): 0
drug sensitivity score (BT-549 [32]): 0
